The record followed here is publication PMC10610379, “Epidrugs as Promising Tools to Eliminate Plasmodium falciparum Artemisinin-Resistant and Quiescent Parasites” (Pharmaceutics, 2023).

Data set [1] relates to Plasmodium falciparum F32-ART (artemisinin-resistant strain). The experiment in a line: Standard chemosensitivity assay (SYBR Green I), F32-ART. Format: cell-based. Particulars: for IC50: Plasmodium falciparum, read-out: Antiplasmodial Activity: IC50, F32-ART; for Selectivity Index CC50/IC50: ratio cytotoxicity (mammalian cell type of the CC50)/antiplasmodial activity on F32-ART. The method, then:
(§1) They differ by eight mutations in seven genes (PF3D7_0110400, PF3D7_1343700, PF3D7_0213400, PF3D7_1115700, PF3D7_1302100, PF3D7_1459600, PF3D7_1464500) among them the M476I mutation on the kelch13 gene. F32-ART and F32-TEM strains have RSA^0–3 h values up to 12% and less than 0.1%, respectively. […] Both strains were cultured, in the same conditions, according to the Trager and Jensen protocol with modifications. Briefly, parasites were cultivated in RPMI-1640 medium (Biowest) at 2% hematocrit in human red blood cells and 5% human serum (EFS, French Blood Bank) under 5% CO2 in a humid atmosphere at 37 °C.
(§2) The antimalarial activities of the compounds were evaluated on both strains. […] Antimalarial activities were determined with the SYBR Green I method. Each drug concentration was tested in triplicate. The parasites were incubated with the drugs for 48 h. Plates were read on a BioTek FLX800 Microplate Fluorescence Reader (Bio-Tek instruments, Winooski, VT, USA) (λexcitation = 485 nm, λemission = 528 nm). Control parasite culture (i.e., RPMI with 0.5% DMSO) was referred to as 100% growth. IC50 and IC90 values were determined using GraphPad Prism version 7.05 (GraphPad Software, San Diego, CA, USA). Results were the mean of 3 independent experiments. When it is relevant, statistical significance between results obtained with both parasite strains was determined by a Mann–Whitney test using GraphPad Prism version 7.05.

In data set [2] the test system is Plasmodium falciparum F32-TEM (artemisinin-sensitive twin line). The experiment in a line: Standard chemosensitivity assay (SYBR Green I), F32-TEM. Format: cell-based. Conditions: Plasmodium falciparum, read-out: Antiplasmodial Activity: IC50, F32-TEM. How it is done: as §1, §2
A short description of data set [3]: Cytotoxicity evaluation by MTT assay. Particulars: monkey, Vero cells, * mean of 2 experiments. Format: cell-based. How it is done: The cytotoxicity of all newly synthesized compounds was evaluated on the Vero cell lines (isolated from monkey kidney cells, gift from the Faculty of Pharmacy, Toulouse, France) by MTT assay according to Mosmann with slight modifications. Briefly, cells in MEM medium supplemented with 10% fetal calf serum, 2 mM L-glutamine, antibiotics (100 U/mL penicillin and 100 µg/mL streptomycin), and NEAA 1X, were seeded in 96-well plates. After a 24-h incubation at 37 °C and 5% CO2 in a humidified atmosphere, compounds were added with concentrations ranging from 5 nM to 50 μM in duplicate. […] The security index was calculated as the ratio of cytotoxicity/antiplasmodial activity.
Background: Tetrazolium dyes change colour on reduction, which living cells bring about.

The next data set concerns H3K4me1. The experiment in a line: Immunoblotting, histone mark abundance in F32-ART parasites. Format: cell-based, Plasmodium falciparum. Conditions: 700nM DHA alone, F32-ART ring stage; 3 replicates (Fig 3D). How it is done: (§3) Abundance of methylated and acetylated histone was determined in parasite cultures in different conditions: “not-treated”, “DHA 24 h”, “DHA 6 h/DHA 24 h” and “DHA 6 h/DHA + compound to be tested 24 h”. At the end of the treatments, parasite cultures were washed in RPMI-1640 and then twice in PBS 1× before red blood cell lysis with 0.075% saponin (Sigma-Aldrich) in PBS. Parasite ghosts were washed 3 times in PBS before incubating the ghosts with E1A lysis buffer (50 mM Hepes pH 7.5; 250 mM NaCl; 5 mM EDTA; 0.1% Triton X-100, 1 mM DTT, 0.2 mM PMSF supplemented with complete Mini EDTA-free protease inhibitor cocktail (Roche®, Basel, Switzerland)) for 15 min. Ghosts were then sonicated for 3 × 15s ON/OFF cycles to shear parasite membranes. Debris were pelleted by centrifuging for 15 min at 13,800× g and 4 °C, and supernatants (containing parasitic proteins) were then collected. Protein concentrations were determined using BCA assay (Bio-Rad, Hercules, CA, USA) according to the manufacturer’s instructions. For each sample, 10 µg of proteins were mixed with 4× sample buffer (10 mL 50% Glycerol, 5 mL 0.5 M Tris HCl pH 6.8, 4 mL 20% SDS, 0.02% Bromophenol blue for a total solution volume of 20 mL) and 100 mM DTT and then separated on 15% SDS-PAGE gels in Laemmli running buffer. Gels were then wet-transferred O/N at 20 V onto PVDF membranes. Membranes were blocked in TBST for 1 h at room temperature. Bottom parts were then probed with histone antibodies while upper parts were probed with PFALDOLASE antibody (Abcam, ab38905, Cambridge, UK) at 1:20,000 dilution. The following primary antibodies were used: anti-H3K4me1 (Abcam, ab8895); anti-H3K4me2 (Abcam, ab35356); anti-H3K9me2 (Abcam, ab1220); anti-H3K9me3 (Millipore, 07-442, Burlington, MA, USA); anti-tetra-acetyl H4 (Millipore, 06-866); anti-H4K8Ac (Millipore, 07-328); anti-H4K20me3 (Abcam, ab9053); anti-H3K4me3 (Diagenode) and anti-H3K9Ac (Millipore, 07-352) at 1:10,000. The following secondary antibodies were used: anti-rabbit IgG-Peroxidase produced in goat (Sigma-Aldrich) or anti-mouse IgG-Peroxidase (Sigma-Aldrich); at 1:20,000 dilutions. Blots were developed using ECL Prime Western Blotting (GE Healthcare, Chicago, IL, USA) and read on a Chemidoc touch imaging software. Densitometry analysis was performed by using ImageLab software from Bio-Rad. To determine if variations in histone abundances were statistically significant, immunoblotting experiments were performed on 3 biological replicates and each run was performed twice.
A general note: Immunoblotting shows a protein as a band on a membrane.

In a further data set the test system is H3K4me2. Described as above. Particulars: 700nM DHA alone, F32-ART ring stage; 3 replicates (Fig 3D). Format: cell-based, Plasmodium falciparum. The method, then:
as §3

A further data set deals with H3K4me3. Described as above. Format: cell-based, Plasmodium falciparum. Conditions: 700nM DHA alone, F32-ART ring stage; 3 replicates (Fig 3D). How it is done:
as §3

For the next data set, the system named is H4K20me3. The data set is described as above. Format: cell-based, Plasmodium falciparum. Particulars: 700nM DHA alone, F32-ART ring stage; 3 replicates (Fig 3D). How it is done:
as §3

In the next data set the test system is H4K8ac. The data set is described as above. Format: cell-based, Plasmodium falciparum. Conditions: 700nM DHA alone, F32-ART ring stage; 3 replicates (Fig 3D). The method, then:
as §3

A further data set deals with H4ac4. The description is as above. Conditions: 700nM DHA alone, F32-ART ring stage; 3 replicates (Fig 3D). Format: cell-based, Plasmodium falciparum. How it is done:
as §3

[4] abbreviates: F32-ART, 48 h incubation, SYBR Green I, mean ± SEM of 3 experiments (* mean of 2).
Where [5] appears, read: F32-TEM, 48 h incubation, SYBR Green I, mean ± SEM of 3 experiments (* mean of 2).

What is called IC50 is the point on the concentration scale where inhibition reaches its midpoint. As usually defined, the CC50 is the concentration giving 50% cytotoxicity.

Several values for one entry are separate records, joined by “and”; a condition that tells them apart may be missing. Identical values can stand only once. Like-named read-outs stand apart in the source and are kept apart here. Some results are limits rather than exact numbers.

For the compound `O=C1c2ccccc2O[C@H](c2ccccc2[N+](=O)[O-])[C@@]1(Cl)[N+](=O)[O-]` (relative stereo) [Flv69], the half-maximal inhibitory concentration (IC50) in data set [1] (setting [4]) and in [2] (setting [5]) was greater than 10 µM throughout. The same compound yielded a CC50 in data set [3] greater than 50 µM.

For the compound `C[C@]1([N+](=O)[O-])C(=O)c2ccccc2O[C@@H]1c1ccccc1[N+](=O)[O-]` (relative stereo) [MLo1302], the IC50 in data set [1] (setting [4]) worked out at 7 µM; in data set [2] (setting [5]) it was 8 µM. Moreover, the “Selectivity Index CC50/IC50” value in [1] amounted to 0.9. Further, the half-maximal cytotoxic concentration (CC50) in data set [3] was 6.5 µM.

On to `O=C1c2ccccc2O[C@H](c2ccccc2)[C@]1(F)[N+](=O)[O-]` (relative stereo) [MLo1401], for which the IC50 in data set [1] (setting [4]) and in data set [2] (setting [5]) was greater than 10 µM each time. The “Selectivity Index CC50/IC50” value in data set [1] was less than 2. For the same compound, the midpoint of cytotoxicity in data set [3], the CC50, lay at 20 µM.

For the compound `O=C1c2ccccc2O[C@H](c2ccccc2[N+](=O)[O-])[C@@]1(Br)[N+](=O)[O-]` (relative stereo) [MLo1507], the concentration for half-maximal inhibition (IC50) in data set [1] (setting [4]) and in data set [2] (setting [5]) was greater than 10 µM throughout. Moreover, the “Selectivity Index CC50/IC50” value in data set [1] is listed as less than 4. The same compound showed a cytotoxic concentration (CC50) in data set [3] of 40 µM.

Consider `O=C1c2ccccc2O[C@H](c2ccccc2F)[C@@]1(Br)[N+](=O)[O-]` (relative stereo) [MLo1509], for which the half-inhibitory concentration (IC50) in data set [1] (setting [4]) and in data set [2] (setting [5]) was greater than 10 µM each time. The compound also displayed a CC50 in data set [3] greater than 50 µM.

`Cc1sc2c(c1C)C(c1ccc(Cl)cc1)=N[C@@H](CC(=O)OC(C)(C)C)c1nnc(C)n1-2` [(+)-JQ-1]: the IC50 in data set [1] (setting [4]) and in data set [2] (setting [5]) was greater than 10 µM throughout. Also, the “Selectivity Index CC50/IC50” value in data set [1] is on record as less than 0.02. Moreover, the CC50 in data set [3] amounted to 0.2 µM.

For `Cc1noc(C)c1-c1ccc2c(c1)nc(CCc1ccc(O)cc1)n2CCN1CCOCC1` [AKE-040], the half-inhibitory concentration (IC50) in data set [1] (setting [4]) and in data set [2] (setting [5]) was greater than 10 µM in each case. Further, the “Selectivity Index CC50/IC50” value in data set [1] was less than 2.4. For the same compound, in data set [3], the 50% cytotoxic concentration (CC50) was 24 µM.

For the compound `CC1=NN(C2CCC(C(=O)O)CC2)C(=O)C1=Cc1ccc(-c2cc(C)c(C)cc2[N+](=O)[O-])o1` (centres unmarked) [C646], the half-inhibitory concentration (IC50) was greater than 10 µM in [1] (F32, 48 h) and greater than 10 µM in data set [2] (F32, 48 h).

Regarding `C[C@H]1[C@@H](O)O[C@@H]2O[C@@]3(C)CC[C@H]4[C@H](C)CC[C@@H]1[C@@]24OO3` [DHA, Dihydroartemisinin], in the data set with H3K4me1, the “Fold change of H3K4me1 abundance, DHA vs DMSO” value was 1.02 and 1.53 and 1.51. For the same compound, in the data set on H3K4me2, the “Fold change of H3K4me2 abundance, DHA vs DMSO” value was 1.36 and 1.49 and 1.08. Also, the “Fold change of H3K4me3 abundance, DHA vs DMSO” value with H3K4me3 was 0.71 and 0.98 and 0.76. In the data set on H4K20me3, the “Fold change of H4K20me3 abundance, DHA vs DMSO” value is “increase and 1.51 and 1.65”. In the data set on H4K8ac, the “Fold change of H4K8ac abundance, DHA vs DMSO” value is “increased level and 2.03 and 2.07 and 2.15”. Also, the “Fold change of H4ac4 abundance, DHA vs DMSO” value in the data set with H4ac4 is “increased level and 2.04 and 2.38 and 1.70”.

Regarding `COc1ccc([N+](=O)[O-])c(C2Oc3ccccc3C(=O)C2(Cl)[N+](=O)[O-])c1` (centres unmarked) [Flv880], the concentration for half-maximal inhibition (IC50) in data set [1] (setting [4]) and in [2] (setting [5]) was greater than 10 µM throughout. The 50% cytotoxic concentration (CC50) in data set [3] was greater than 50 µM.

For `O=C1c2ccccc2OC(c2ccccc2)C1[N+](=O)[O-]` (centres unmarked) [MLo1406], the half-inhibitory concentration (IC50) in [1] (setting [4]) and in [2] (setting [5]) was greater than 10 µM in each case. Further, in [3], the CC50 is greater than 50 µM.

In the case of `O=C1c2ccccc2OC(c2ccccc2)C1(Br)[N+](=O)[O-]` (centres unmarked) [MLo1502], the IC50 in [1] (setting [4]) and in data set [2] (setting [5]) was greater than 10 µM in each case. Further, in data set [3], the CC50 is greater than 50 µM.

Turning to `COc1ccc([N+](=O)[O-])c(C2Oc3ccccc3C(=O)C2(Br)[N+](=O)[O-])c1` (centres unmarked) [MLo1508], the half-inhibitory concentration (IC50) in data set [1] (setting [4]) and in data set [2] (setting [5]) was greater than 10 µM each time. Further, in data set [1], the “Selectivity Index CC50/IC50” value is on record as less than 3.6. In addition, the CC50 in data set [3] amounted to 36 µM.

As for `COc1cccc(C2Oc3ccccc3C(=O)C2(Cl)[N+](=O)[O-])c1` (centres unmarked) [NFlav2018], the concentration for half-maximal inhibition (IC50) in [1] (setting [4]) and in [2] (setting [5]) was greater than 10 µM each time. This compound also showed a CC50 in data set [3] greater than 50 µM.

For the compound `Cc1sc2c(c1C)C(c1ccc(Cl)cc1)=N[C@@H](CC(=O)NCC13CC4CC(CC(C4)C1)C3)c1nnc(C)n1-2` [SHH-878-1], the IC50 in data set [1] (setting [4]) and in data set [2] (setting [5]) was 10 µM in each case. For the same compound, the “Selectivity Index CC50/IC50” value in data set [1] was determined as 0.3. In data set [3], the CC50 was 3 µM.

For `C[C@@H]1CC[C@H]2[C@@H](C)C(=O)O[C@@H]3O[C@@]4(C)CC[C@@H]1[C@]32OO4` [artemisinin, Artemisinin], in [2] (setting [5]), the half-inhibitory concentration (IC50) is 0.013 ± 0.003 µM. Moreover, in [3], the half-maximal cytotoxic concentration (CC50) was greater than 100 µM.
